Data from EP1180991B1, “GAMBOGIC ACID DERIVATIVES AS ACTIVATORS OF CASPASES AND INDUCERS OF APOPTOSIS” (Cytovia, Inc., priority 1999, dated 2000).

Tests used:
HEL cells = details: Asano et al. 1996; cited from earlier work
Jurkat cells = assay: PARP cleavage, western blot (Example 98); assay type: cell-based, human; details: 2.5 µM, 2 h (Fig. 5A)
Procedure: (§1) Cleavage of the enzyme poly(ADP)ribose polymerase (PARP) by caspase-3 and related proteases is considered to be one of the molecular hallmarks of caspase-mediated apoptosis. Therefore, the ability of gambogic acid to induce PARP cleavage in four different human tumor cell lines (Jurkat cells, HL-60 cells, T47D cells and PC3 cells) was determined.
(§2) Cells were cultured in complete growth medium containing 10% FBS and treated with gambogic acid at concentrations of 2.5 µM or 5 µM for 2 to 4 h. Control cultures were treated with a drug vehicle (DMSO), or the well-characterized apoptosis inducer, staurosporine. At the end of the apoptosis induction period, the cells were harvested, washed once with PBS, quick-frozen on dry ice, and stored at -80° C. The cells were then lysed in a standard immunoblotting lysis buffer and samples of the lysates were electrophoresed on 4% to 20% gradient polyacrylamide gels. The proteins in the gels were then transferred to PVDF membranes and probed with a commercially-available rabbit polyclonal antibody to PARP.

HL-60 cells = assay: PARP cleavage, western blot (Example 98); assay type: cell-based, human; details: 2.5 µM, 2 h (Fig. 5B)
Procedure: as §1, §2

T47D cells [1] = assay: PARP cleavage, western blot (Example 98); assay type: cell-based, human
Procedure: as §1
as §2, with “Cells were cultured in complete growth medium containing 10% FBS and treated with gambogic acid at concentrations of 2.5 µM or 5 µM for 2 to 4 h.” left out

PC3 cells = assay: PARP cleavage, western blot (Example 98); assay type: cell-based, human
Procedure: as §1
as §2, with “Cells were cultured in complete growth medium containing 10% FBS and treated with gambogic acid at concentrations of 2.5 µM or 5 µM for 2 to 4 h.” left out

T47D cells [2] = assay: Dose response of caspase activation, cancer cells versus normal fibroblasts (Example 96); assay type: cell-based, human; details: T47D versus MRC-5; 2 h dose response (Fig. 4)
Procedure: T47D cells and MRC-5 cells were maintained and harvested as described in Example 90. […] To determine the dose response of gambogic acid for inducing caspase activity, 5 µl of 20 µM gambogic acid in RPMI media was added to wells in triplicates. Two-fold serial dilutions were made for the lower concentrations. After incubation for 2 h, the samples were removed from the 5% CO2-95% humidity incubator and caspase activity was determined by addition of a fluorogenic substrate as described in Example 90.

T47D cells [3] = assay: Morphological change of cells, phase contrast (Example 93); assay type: cell-based, human; details: 2.5 µM
Procedure: In addition, apoptotic adherent cells in culture lose their ability to remain attached to the culture dish. The ability of gambogic acid to trigger these morphological changes in T47D cells was investigated.
60 mm culture dishes were seeded with 750,000. T47D cells and the cultures were incubated under normal growth conditions (complete medium with 10% FBS) for 24 h. The cells were then treated with 2.5 µM of gambogic acid and further incubated under normal growth conditions for 2 or 6 h. Morphological changes were documented by photographing the cells under phase contrast illumination.

HeLa = details: Asano et al. 1996; cited from earlier work
ZR-75-1 = assay: Inhibition of cell proliferation (GI50) and cell death (LC50), CellTiter 96 (Example 91); assay type: cell-based; details: Homo sapiens, ZR-75-1, 48 h
Procedure: (§3) T-47D, ZR-75-1, PC-3, human prostate cancer cell line DU-145, human non-small cell lung cancer cell line A-549, human small cell lung cancer cell line SHP-77, HL-60 and MRC-5 cells were grown and harvested as in Example 90. […] The samples were mixed by agitation and incubated at 37° C for 2-4 h in a 5% CO2-95% humidity incubator. […] This determines the possible background absorbance of the test compounds. No absorbance for gambogic acid or its analogs or derivatives was found at 490 nm. After the 2-4 h incubation, the samples were read for absorbance as above (ATest).
(§4) The samples were mixed by agitation and incubated at 37° C for 2-4 h in a 5% CO2-95% humidity incubator. Absorbance was read as above, (AT=0) defining absorbance for initial cell number used as baseline in GI50 determinations and (Amin) defining absorbance for media alone used as baseline in LC50 determinations.
(§5) GI50 (dose for50%inhibition of cell proliferation) 50 = 100 x [(ATest-AT = 0)/(Amax-AT = 0)] [formula] LC50 (dose for50%cell death) 50 = 100 x [(ATest-Amin)/(AT = 0-Amin)] [formula]

HL-60 = assay: as above; assay type: cell-based; details: Homo sapiens, HL-60, 48 h
Procedure: as §3, §4, §5

T-47D = assay: as above; assay type: cell-based; details: Homo sapiens, T47D, T-47D, 48 h
Procedure: as §3, §4, §5

A-549 = assay: as above; assay type: cell-based; details: Homo sapiens, A549, A-549, 48 h
Procedure: as §3, §4, §5

SHP-77 = assay: as above; assay type: cell-based; details: Homo sapiens, SHP77, SHP-77, 48 h
Procedure: as §3, §4, §5

PC-3 = assay: as above; assay type: cell-based; details: Homo sapiens, PC-3, 48 h
Procedure: as §3, §4, §5

DU-145 = assay: as above; assay type: cell-based; details: Homo sapiens, DU-145, 48 h
Procedure: as §3, §4, §5

[4] = dose for 50% cell death, read-out: LC50 (the source's name)
[5] = dose for 50% inhibition of cell proliferation, read-out: GI50

For `CC(C)=CCC[C@]1(C)C=Cc2c(O)c3c(c(CC=C(C)C)c2O1)O[C@]12C(=C[C@@H]4C[C@H]1C(C)(C)O[C@@]2(C/C=C(/C)C(=O)O)C4=O)C3=O` [Example 1, Gambogic Acid], the cytotoxicity (HEL cells) is given as “cytotoxic”, the PARP cleavage (Jurkat cells) is given as “almost complete PARP cleavage” and the PARP cleavage (HL-60 cells) is given as “almost complete PARP cleavage”. For the same compound, the PARP cleavage (T47D cells [1]; 2.5 µM and 5 µM, 4 h (Fig. 5C)) was “almost complete PARP cleavage”, the PARP cleavage (T47D cells [1]; 2.5 µM, 2 h (Fig. 5C)) was “moderate induction of PARP cleavage” and the PARP cleavage (T47D cells [1]; 5 µM, 2 h (Fig. 5C)) was “almost complete PARP cleavage”. For the same compound, the PARP cleavage (PC3 cells; 2.5 µM and 5 µM, 2 h (Fig. 5D)) was “neither concentration (2.5 µM and 5 µM) of drug was effective”, the PARP cleavage (PC3 cells; 5 µM, 4 h (Fig. 5D)) was “a moderate amount of PARP cleavage product” and the “sensitivity to induction of caspase activity” value (T47D cells [2]) was “more sensitive to induction of caspase activity than a normal fibroblast cell line MRC-5”. For the same compound, the apoptotic morphological changes (T47D cells [3]; 2 h (Fig. 1B)) was “many of the cells have taken on a rounded, phase-bright morphology”, the apoptotic morphological changes (T47D cells [3]; 6 h (Fig. 1C)) was “most of the cells in the culture are rounded up and are beginning to detach from the dish” and the cytotoxicity (HeLa) was “cytotoxic”. It also gave a CC50 (ZR-75-1; [4]) of 500 nM, a GI50 (ZR-75-1; [5]) of 400 nM and a CC50 (HL-60; [4]) of 700 nM. The GI50 (HL-60; [5]) was 500 nM, the CC50 (T-47D; [4]) was 450 nM and the GI50 (T-47D; [5]) was 65 nM. For the same compound, the CC50 (A-549; [4]) was 5000 nM, the GI50 (A-549; [5]) was 800 nM and the CC50 (SHP-77; [4]) was 500 nM. For the same compound, the GI50 (SHP-77; [5]) was 500 nM, the CC50 (PC-3; [4]) was 700 nM and the GI50 (PC-3; [5]) was 500 nM. The CC50 (DU-145; [4]) was 800 nM and the GI50 (DU-145; [5]) was 500 nM.
